Where “and” joins values, the source holds several entries; their conditions need not be identical. Identical values can stand only once.
Target: T1, Muscarinic acetylcholine receptor M2 (Rattus norvegicus, UniProt P10980)
T1 sequence (P10980 whole entry): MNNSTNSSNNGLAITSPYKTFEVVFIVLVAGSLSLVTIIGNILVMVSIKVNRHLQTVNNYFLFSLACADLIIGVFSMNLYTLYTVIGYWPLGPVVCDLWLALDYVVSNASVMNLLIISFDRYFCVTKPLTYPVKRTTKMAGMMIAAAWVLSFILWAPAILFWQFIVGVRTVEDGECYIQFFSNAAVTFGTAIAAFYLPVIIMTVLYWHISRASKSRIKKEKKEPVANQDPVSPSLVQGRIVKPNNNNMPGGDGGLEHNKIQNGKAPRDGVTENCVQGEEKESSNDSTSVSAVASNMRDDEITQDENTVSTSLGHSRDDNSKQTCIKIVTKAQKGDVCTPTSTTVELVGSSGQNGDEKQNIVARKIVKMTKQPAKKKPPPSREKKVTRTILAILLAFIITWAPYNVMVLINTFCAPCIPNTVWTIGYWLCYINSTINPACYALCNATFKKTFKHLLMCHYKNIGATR
Experiment: Affinity for rat Muscarinic acetylcholine receptor M2

Row | SMILES | Ki
1 | Cc1ccc(OCc2ccccc2)c(C(CCN2C[C@@]3(C)C[C@@]3(C)C2)c2ccccc2)c1 (stereo not given in full) | > 10000 nM
2 | Cc1ccc(O)c(C(CCN2CC3C[C@@H]3C2)c2ccccc2)c1 (single isomer, unassigned) | 105 nM
3 | Cc1ccc(O)c(C(CCN2C[C@@]3(C)C[C@@]3(C)C2)c2ccccc2)c1 (stereo not given in full) | > 1000 nM
4 | Cc1ccc(O)c(C(CCN2C[C@H]3C[C@H]3C2C)c2ccccc2)c1 (stereo not given in full) | 34 nM and 42 nM
5 | Cc1ccc(OCc2ccccc2)c(C(CCN2C[C@H]3C[C@H]3C2C)c2ccccc2)c1 (stereo not given in full) | > 10000 nM
6 | Cc1ccc(O)c(C(CCN2C[C@H]3C[C@@]3(C)C2)c2ccccc2)c1 (stereo not given in full) | 221 nM
7 | O=C(NCC#CCN1CC2CC2C1)C(O)(c1ccccc1)C1CCCCC1 (stereo not given) | 3580 nM
8 | O=C(NCC#CCN1CC2CC2C1)C(O)(c1ccccc1)c1ccccc1 (stereo not given) | 639 nM
9 | O=C(NCC#CCN1CC2CC2C1)C(O)(c1ccc(F)cc1)c1ccc(F)cc1 (stereo not given) | 736 nM
10 | Cc1ccc(OCc2ccccc2)c(C(CCN2C[C@H]3C[C@H]3C2)c2ccccc2)c1 (stereo not given in full) | > 10000 nM

Source: ChEMBL document CHEMBL1143535 (Bioorg Med Chem Lett, 2005)
